Source: patent US20030104507A1, “Method for detection of ATP” (priority 2001, published 2003)

Legend:
[1] = system: LucPpe2m146; test: Stability of reagent composition with LucPpe2m146 and detergent (RT, pH 7.0); type: biochemical, Photuris pennsylvanica
From the text: (§1) The detergents used for inhibition of endogenous ATPase activity in a sample also affect activity of luciferase. […] It is ultimately the extended stability of a reagent composition, comprising an ATPase inhibitor and a luciferase enzyme, which provides a composition useful for measuring ATP, in a sample or samples, over an extended period of time.
(§2) In this experiment, the stability of a reagent composition comprising wild type LucPpy was compared to the stability of a reagent composition comprising LucPpe2m146 at about 23° C. (room temperature). The various reagent compositions had varying detergent concentrations.
(§3) Two solutions were created as listed below. One contained the luciferase, luciferin, MgSO4, and buffer (reagent composition). The other solution contained media plus ATP (media solution).
(§4) 50 μg/ml enzyme (LucPpy is Promega catalog #E170A)
(§5) Detergent (at various concentrations, see table below)
(§6) For each reagent composition, all ingredients except the luciferase enzyme were assembled; the enzyme was then added immediately before the first luminescence reading was taken. Immediately after addition of enzyme to each reagent composition and for various timepoints thereafter, 100 μl aliquots of the reagent composition were added to wells of a 96-well microtitre luminometer plate in triplicate. To these were added 100 μl Media Solution containing the ATP. Luminescence was then immediately read on a Dynex MLX microtitreplate luminometer, 0.5 second reads per well. The average relative light unit values as well as the reaction half lives are listed below in Table I and the percent of original luminescence remaining at each timepoint is listed in Table J below. The timepoint at the top of the column indicates the time at which the first rlu measurement for the samples in that column was read. […] Times listed in Table I are the same for Table J. The values for sulfobetaine and for CTAB were generated on different days, they are presented with the control values generated in the same experiment.

[2] = target: T1, LucPpy (Photinus pyralis, UniProt P08659); test: Stability of reagent composition with LucPpy and detergent (RT, pH 7.0); type: biochemical; conditions: for Average Relative Light Units / Percent of Luminescence Remaining: LucPpy
T1 construct: purchased Promega E170A
From the text: as §1, §2, §3, §4, §5, §6

SMILES: CCCCCCCCCCCC[N+](C)(C)CCCS(=O)(=O)[O-] [Sulfobetaine 3-10, N-Dodecyl-N,N-dimethyl-3-ammonio-1-propanesulfonate]
- Average Relative Light Units ([1]; LucPpe2m146, 0.1%, 0.75 min (head r48)): 16648.3 rlu
- Percent of Luminescence Remaining ([1]; LucPpe2m146, 0.1%, 0.75 min (times of Table I r48)): 100.00%
- Average Relative Light Units ([1]; LucPpe2m146, 0.1%, 30 min (head r48)): 17003.0 rlu
- Percent of Luminescence Remaining ([1]; LucPpe2m146, 0.1%, 30 min (times of Table I r48)): 102.1%
- Average Relative Light Units ([1]; LucPpe2m146, 0.1%, 66 min (head r48)): 17849.8 rlu
- Percent of Luminescence Remaining ([1]; LucPpe2m146, 0.1%, 66 min (times of Table I r48)): 107.2%
- Average Relative Light Units ([1]; LucPpe2m146, 0.1%, 123 min (head r48)): 16610.13 rlu
- Percent of Luminescence Remaining ([1]; LucPpe2m146, 0.1%, 123 min (times of Table I r48)): 99.8%
- Average Relative Light Units ([1]; LucPpe2m146, 0.1%, 180 min (head r48)): 17115.63 rlu
- Percent of Luminescence Remaining ([1]; LucPpe2m146, 0.1%, 180 min (times of Table I r48)): 102.8%
- Average Relative Light Units ([1]; LucPpe2m146, 0.1%, 238 min (head r48)): 18131.37 rlu
- Percent of Luminescence Remaining ([1]; LucPpe2m146, 0.1%, 238 min (times of Table I r48)): 108.9%
- Average Relative Light Units ([1]; LucPpe2m146, 0.5%, 0.75 min (head r48)): 13447.0 rlu
- Percent of Luminescence Remaining ([1]; LucPpe2m146, 0.5%, 0.75 min (times of Table I r48)): 100.00%
- Average Relative Light Units ([1]; LucPpe2m146, 0.5%, 30 min (head r48)): 13597.97 rlu
- Percent of Luminescence Remaining ([1]; LucPpe2m146, 0.5%, 30 min (times of Table I r48)): 101.1%
- Average Relative Light Units ([1]; LucPpe2m146, 0.5%, 66 min (head r48)): 14186.93 rlu
- Percent of Luminescence Remaining ([1]; LucPpe2m146, 0.5%, 66 min (times of Table I r48)): 105.5%
- Average Relative Light Units ([1]; LucPpe2m146, 0.5%, 123 min (head r48)): 12982.20 rlu
- Percent of Luminescence Remaining ([1]; LucPpe2m146, 0.5%, 123 min (times of Table I r48)): 96.5%
- Average Relative Light Units ([1]; LucPpe2m146, 0.5%, 180 min (head r48)): 14348.90 rlu
- Percent of Luminescence Remaining ([1]; LucPpe2m146, 0.5%, 180 min (times of Table I r48)): 106.7%
- Average Relative Light Units ([1]; LucPpe2m146, 0.5%, 238 min (head r48)): 13958.2 rlu
- Percent of Luminescence Remaining ([1]; LucPpe2m146, 0.5%, 238 min (times of Table I r48)): 103.8%
- Average Relative Light Units ([1]; LucPpe2m146, 1.0%, 0.75 min (head r48)): 16897.5 rlu
- Percent of Luminescence Remaining ([1]; LucPpe2m146, 1.0%, 0.75 min (times of Table I r48)): 100.00%
- Average Relative Light Units ([1]; LucPpe2m146, 1.0%, 30 min (head r48)): 16754.97 rlu
- Percent of Luminescence Remaining ([1]; LucPpe2m146, 1.0%, 30 min (times of Table I r48)): 102.0%
- Average Relative Light Units ([1]; LucPpe2m146, 1.0%, 66 min (head r48)): 7036.0 rlu
- Percent of Luminescence Remaining ([1]; LucPpe2m146, 1.0%, 66 min (times of Table I r48)): 106.0%
- Average Relative Light Units ([1]; LucPpe2m146, 1.0%, 123 min (head r48)): 6653.67 rlu
- Percent of Luminescence Remaining ([1]; LucPpe2m146, 1.0%, 123 min (times of Table I r48)): 100.3%
- Average Relative Light Units ([1]; LucPpe2m146, 1.0%, 180 min (head r48)): 7358.44 rlu
- Percent of Luminescence Remaining ([1]; LucPpe2m146, 1.0%, 180 min (times of Table I r48)): 110.9%
- Average Relative Light Units ([1]; LucPpe2m146, 1.0%, 238 min (head r48)): 6948.05 rlu
- Percent of Luminescence Remaining ([1]; LucPpe2m146, 1.0%, 238 min (times of Table I r48)): 104.7%
- Half-life of Luminescence Activity ([2]; Common firefly luciferase (P. pyralis), conc. 0.500): no activity
- Average Relative Light Units ([2]; 0.1%, 0.75 min (head r12)): 3291.41 rlu
- Percent of Luminescence Remaining ([2]; 0.1%, 0.75 min (times of Table I r12)): 100.00%
- Average Relative Light Units ([2]; 0.1%, 7.5 min (head r12)): 3178.07 rlu
- Percent of Luminescence Remaining ([2]; 0.1%, 7.5 min (times of Table I r12)): 95.8%
- Average Relative Light Units ([2]; 0.1%, 20.5 min (head r12)): 3262.17 rlu
- Percent of Luminescence Remaining ([2]; 0.1%, 20.5 min (times of Table I r12)): 99.1%
- Average Relative Light Units ([2]; 0.1%, 59 min (head r12)): 3074.49 rlu
- Percent of Luminescence Remaining ([2]; 0.1%, 59 min (times of Table I r12)): 93.4%
- Average Relative Light Units ([2]; 0.1%, 90 min (head r12)): 3066.29 rlu
- Percent of Luminescence Remaining ([2]; 0.1%, 90 min (times of Table I r12)): 93. %
- Average Relative Light Units ([2]; 0.5%, 0.75 min (head r12)): 737.788 rlu
- Percent of Luminescence Remaining ([2]; 0.5%, 0.75 min (times of Table I r12)): 100.00%
- Average Relative Light Units ([2]; 0.5%, 7.5 min (head r12)): 0.084 rlu
- Average Relative Light Units ([2]; 0.5%, 20.5 min (head r12)): 0.037 rlu
- Average Relative Light Units ([2]; 1.0%, 0.75 min (head r12)): 0.024 rlu
- Average Relative Light Units ([2]; 1.0%, 7.5 min (head r12)): 0.000 rlu
